Patent publication EP0603240B1, “SAFENING HERBICIDAL PYRAZOLYLSULFONYLUREAS” (priority 1991, dated 1993)

Assays:
Assay type in all cases: in vivo
[1] = system: velvetleaf (Abutilon theophrasti); test: Example 11, Procedure II: Herbicide No. 1 + metazachlor (No. 14) with antidotes
Method: (§1) Containers were filled and compacted with a fumigated silt loam top soil to a depth of about 1.3 cm from the top of the container. A first container was designated as an untreated control, a second container was designated as a herbicide control, and a third container was designated as a herbicide + antidote test container. Each of the containers was seeded with a crop species. A measured amount of herbicide dispersed or dissolved in acetone was applied to a measured quantity of soil. To this same quantity of soil treated with herbicide, there was added a measured amount of antidote dispersed or dissolved in acetone. The quantity of soil treated with the herbicide and antidote was thoroughly mixed to incorporate the herbicide and antidote in the soil uniformly. The seed bed in the third container of soil was covered with the soil treated with the herbicide and antidote and the container was leveled. For each test series, the seed beds of the first and second containers were likewise covered by soil layers. the cover layer of the first container was not treated with herbicide or antidote.
(§2) The containers were then placed on a bench in a greenhouse and sub-irrigated as required for the duration of the test. […] Plant response is measured in terms of percent injury. Antidote efficacy is indicated as the difference in plant injury by the herbicide(s) without the antidote and with the antidote.
(§3) This procedure is the same as Procedure I, but modified in the manner that after incorporation of the chemicals (herbicide and antidote) the containers with the covered seedbed were treated with an initial overhead irrigation equivalent to 0.6 cm rainfall, then subsequently sub-irrigated as required on greenhouse benches.
(§4) In the series of greenhouse tests described below, for routine screening purposes the herbicide/antidote compositions were tested in crop/weed combinations involving corn as the crop and either or both of the weeds barnyardgrass (Echinochloa crusgalli), a monocotyledonous weed, and velvetleaf (Abutilon theophrasti), a dicotyledonous weed. In the tables below, these weeds are indicated by the symbols "BYG" and "VL", respectively.
(§5) In this example, yet another α-chloroacetanilide co-herbicide, metazachlor (Herbicide No. 14) was combined with Herbicide No. 1 for investigation of the effect of various safeners on that composition. Metazachlor is the active ingredient in the commercial herbicide BUTISAN® S, used here as a 500 g/L formulation.

[2] = system: barnyardgrass (Echinochloa crusgalli); test: as above
Method: as §1, §2, §3, §4, §5

[3] = system: velvetleaf (Abutilon theophrasti); test: Example 18, Procedure II: Herbicide No. 1 + ERADICANE (EPTC + R-25788) with auxiliary antidotes
Method: as §1, §2, §3, §4
(§6) In the test reported in this example, the herbicidal composition was similar to that used in Example 16 in that Herbicide No. 1 was combined with EPTC (Herbicide No. 4) as a co-herbicide and the antidotes included Nos. 1, 2, 7, 13 and 15. However, in this test the EPTC was introduced as a formulation of ERADICANE (EPTC + the antidote R-25788, i.e., Antidote No. 1) at an application rate of 8.96 kg/ha. Thus, in this test two antidotes were present, viz. R-25788 and one of the auxilliary antidotes, No. 2, 13 and 15.
(§7) Test procedures were those of Procedure II above.

[4] = system: barnyardgrass (Echinochloa crusgalli); test: as above
Method: as §1, §2, §3, §4, §6, §7

corn = test: Example 19, Procedure II: Herbicide No. 1 + ERADICANE EXTRA with added antidotes
Outline: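 Corn seeded in silt loam, covered with soil incorporating herbicide plus antidote (from acetone); EPTC given as ERADICANE EXTRA (with R-29148 and dietholate). Initial overhead irrigation equal to 0.6 cm rain, then greenhouse sub-irrigation. Percent injury scored; efficacy is injury without antidote minus injury with it.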

[5] = system: Giant foxtail (Setaria fabergi); test: Example 24, Procedure II: Herbicide No. 1 + co-herbicides Nos. 4, 6, 7, 12 with Antidote Nos. 15 and 17-21
Outline: (§8)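 Greenhouse pots, herbicide No. 1 plus co-herbicides and antidote in acetone incorporated into silt loam soil covering the corn seed bed, with giant foxtail and velvetleaf; initial overhead irrigation equal to 0.6 cm rainfall, then sub-irrigation. Antidote at 2.24 kg/ha; percent injury read 13 days after application, duplicate average.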

[6] = system: velvetleaf (Abutilon theophrasti); test: as above
Outline: as §8

[7] = Herbicide No.1 0.56 kg/ha + Herbicide No.14 3.36 kg/ha, antidote rate 2.24 kg/ha
[8] = Herbicide No.1 0.56 kg/ha + Herbicide No.14 3.36 kg/ha, antidote rate 8.96 kg/ha
[9] = Herbicide No.1 1.12 kg/ha + Herbicide No.14 3.36 kg/ha, antidote rate 2.24 kg/ha
[10] = Herbicide No.1 1.12 kg/ha + Herbicide No.14 3.36 kg/ha, antidote rate 8.96 kg/ha
[11] = Herbicide No.1 0.56 kg/ha + ERADICANE 8.96 kg/ha, antidote 2.24 kg/ha
[12] = Herbicide No.1 0.56 kg/ha + ERADICANE 8.96 kg/ha, antidote 8.96 kg/ha
[13] = Herbicide No.1 1.12 kg/ha + ERADICANE 8.96 kg/ha, antidote 2.24 kg/ha
[14] = Herbicide No.1 1.12 kg/ha + ERADICANE 8.96 kg/ha, antidote 8.96 kg/ha
[15] = Herbicide No.1 0.56 kg/ha + ERADICANE EXTRA 8.96 kg/ha, antidote 2.24 kg/ha
[16] = Herbicide No.1 0.56 kg/ha + ERADICANE EXTRA 8.96 kg/ha, antidote 8.96 kg/ha
[17] = Herbicide No.1 1.12 kg/ha + ERADICANE EXTRA 8.96 kg/ha, antidote 2.24 kg/ha
[18] = Herbicide No.1 1.12 kg/ha + ERADICANE EXTRA 8.96 kg/ha, antidote 8.96 kg/ha
[19] = Herb. No. 1 0.07 Kg/ha + Co-Herb. No. 4 1.12 Kg/ha + antidote 2.24 Kg/ha
[20] = Herb. No. 1 0.07 Kg/ha + Co-Herb. No. 6 0.14 Kg/ha + antidote 2.24 Kg/ha
[21] = Herb. No. 1 0.07 Kg/ha + Co-Herb. No. 7 0.28 Kg/ha + antidote 2.24 Kg/ha
[22] = Herb. No. 1 0.07 Kg/ha + Co-Herb. No. 12 0.28 Kg/ha + antidote 2.24 Kg/ha
[23] = Herb. No. 1 0.14 Kg/ha + Co-Herb. No. 4 1.12 Kg/ha + antidote 2.24 Kg/ha
[24] = Herb. No. 1 0.14 Kg/ha + Co-Herb. No. 6 0.14 Kg/ha + antidote 2.24 Kg/ha
[25] = Herb. No. 1 0.14 Kg/ha + Co-Herb. No. 7 0.28 Kg/ha + antidote 2.24 Kg/ha
[26] = Herb. No. 1 0.14 Kg/ha + Co-Herb. No. 12 0.28 Kg/ha + antidote 2.24 Kg/ha
[27] = Herb. No. 1 0.28 Kg/ha + Co-Herb. No. 4 1.12 Kg/ha + antidote 2.24 Kg/ha
[28] = Herb. No. 1 0.28 Kg/ha + Co-Herb. No. 6 0.14 Kg/ha + antidote 2.24 Kg/ha
[29] = Herb. No. 1 0.28 Kg/ha + Co-Herb. No. 7 0.28 Kg/ha + antidote 2.24 Kg/ha
[30] = Herb. No. 1 0.28 Kg/ha + Co-Herb. No. 12 0.28 Kg/ha + antidote 2.24 Kg/ha
[31] = Herb. No. 1 0.56 Kg/ha + Co-Herb. No. 4 1.12 Kg/ha + antidote 2.24 Kg/ha
[32] = Herb. No. 1 0.56 Kg/ha + Co-Herb. No. 6 0.14 Kg/ha + antidote 2.24 Kg/ha
[33] = Herb. No. 1 0.56 Kg/ha + Co-Herb. No. 7 0.28 Kg/ha + antidote 2.24 Kg/ha
[34] = Herb. No. 1 0.56 Kg/ha + Co-Herb. No. 12 0.28 Kg/ha + antidote 2.24 Kg/ha

For C=CCN(CC=C)C(=O)C(Cl)Cl [compound 1], the “% Injury VL” value [1, 7] was 80%, the “% Injury VL” value [1, 8] was 90% and the “% Injury VL” value [1, 9] was 85%. The “% Injury VL” value [1, 10] was 80%, the “% Injury BYG” value [2, 7] was 99% and the “% Injury BYG” value [2, 8] was 100%. For the same compound, the “% Injury BYG” value [2, 9] was 99%, the “% Injury BYG” value [2, 10] was 100% and the “% Injury VL” value [3, 11] was 85%. For the same compound, the “% Injury VL” value [3, 12] was 85%, the “% Injury VL” value [3, 13] was 75% and the “% Injury VL” value [3, 14] was 75%. For the same compound, the “% Injury BYG” value [4, 11] was 90%, the “% Injury BYG” value [4, 12] was 90% and the “% Injury BYG” value [4, 13] was 90%. The “% Injury BYG” value [4, 14] was 85%, the “% Injury Corn” value (corn; [15]) was 35% and the “% Injury Corn” value (corn; [16]) was 15%. The “% Injury Corn” value (corn; [17]) was 35% and the “% Injury Corn” value (corn; [18]) was 25%.

CC1(C(Cl)Cl)OCCO1 [compound 13] was tested, and the “% Injury VL” value [1, 7] was 85%, the “% Injury VL” value [1, 8] was 85% and the “% Injury VL” value [1, 9] was 90%. For the same compound, the “% Injury VL” value [1, 10] was 95%, the “% Injury BYG” value [2, 7] was 100% and the “% Injury BYG” value [2, 8] was 100%. For the same compound, the “% Injury BYG” value [2, 9] was 100%, the “% Injury BYG” value [2, 10] was 100% and the “% Injury VL” value [3, 11] was 80%. For the same compound, the “% Injury VL” value [3, 12] was 80%, the “% Injury VL” value [3, 13] was 75% and the “% Injury VL” value [3, 14] was 75%. The “% Injury BYG” value [4, 11] was 85%, the “% Injury BYG” value [4, 12] was 85% and the “% Injury BYG” value [4, 13] was 85%. The “% Injury BYG” value [4, 14] was 90%, the “% Injury Corn” value (corn; [15]) was 25% and the “% Injury Corn” value (corn; [16]) was 15%. For the same compound, the “% Injury Corn” value (corn; [17]) was 20% and the “% Injury Corn” value (corn; [18]) was 15%.

For O=C(C(Cl)Cl)N1CCOC12CCCCC2 [compound 7], the “% Injury VL” value [1, 7] was 80%, the “% Injury VL” value [1, 8] was 85% and the “% Injury VL” value [1, 9] was 90%. The “% Injury VL” value [1, 10] was 90%, the “% Injury BYG” value [2, 7] was 99% and the “% Injury BYG” value [2, 8] was 100%. For the same compound, the “% Injury BYG” value [2, 9] was 99%, the “% Injury BYG” value [2, 10] was 99% and the “% Injury VL” value [3, 11] was 75%. The “% Injury VL” value [3, 12] was 80%, the “% Injury VL” value [3, 13] was 70% and the “% Injury VL” value [3, 14] was 75%. For the same compound, the “% Injury BYG” value [4, 11] was 90%, the “% Injury BYG” value [4, 12] was 85% and the “% Injury BYG” value [4, 13] was 85%. The “% Injury BYG” value [4, 14] was 85%, the “% Injury Corn” value (corn; [15]) was 15% and the “% Injury Corn” value (corn; [16]) was 20%. The “% Injury Corn” value (corn; [17]) was 25% and the “% Injury Corn” value (corn; [18]) was 25%.

CC1(C)OC(c2ccco2)CN1C(=O)C(Cl)Cl (stereo not shown) [compound 15] was tested, and the “% Injury VL” value [1, 7] was 90%, the “% Injury VL” value [1, 8] was 90% and the “% Injury VL” value [1, 9] was 85%. For the same compound, the “% Injury VL” value [1, 10] was 85%, the “% Injury BYG” value [2, 7] was 100% and the “% Injury BYG” value [2, 8] was 100%. For the same compound, the “% Injury BYG” value [2, 9] was 100%, the “% Injury BYG” value [2, 10] was 100% and the “% Injury VL” value [3, 11] was 80%. For the same compound, the “% Injury VL” value [3, 12] was 85%, the “% Injury VL” value [3, 13] was 80% and the “% Injury VL” value [3, 14] was 65%. For the same compound, the “% Injury BYG” value [4, 11] was 90%, the “% Injury BYG” value [4, 12] was 90% and the “% Injury BYG” value [4, 13] was 93%. The “% Injury BYG” value [4, 14] was 85%, the “% Injury Corn” value (corn; [15]) was 20% and the “% Injury Corn” value (corn; [16]) was 30%. For the same compound, the “% Injury Corn” value (corn; [17]) was 25%, the “% Injury Corn” value (corn; [18]) was 25% and the “% Inhibition GFT” value [5, 19] was 40%. For the same compound, the “% Inhibition GFT” value [5, 20] was 100%, the “% Inhibition GFT” value [5, 21] was 100% and the “% Inhibition GFT” value [5, 22] was 99%. For the same compound, the “% Inhibition GFT” value [5, 23] was 65%, the “% Inhibition GFT” value [5, 24] was 100% and the “% Inhibition GFT” value [5, 25] was 100%. For the same compound, the “% Inhibition GFT” value [5, 26] was 99%, the “% Inhibition GFT” value [5, 27] was 60% and the “% Inhibition GFT” value [5, 28] was 100%. For the same compound, the “% Inhibition GFT” value [5, 29] was 100%, the “% Inhibition GFT” value [5, 30] was 100% and the “% Inhibition GFT” value [5, 31] was 60%. The “% Inhibition GFT” value [5, 32] was 99%, the “% Inhibition GFT” value [5, 33] was 100% and the “% Inhibition GFT” value [5, 34] was 99%. For the same compound, the “% Inhibition VL” value [6, 19] was 90%, the “% Inhibition VL” value [6, 20] was 95% and the “% Inhibition VL” value [6, 21] was 85%. The “% Inhibition VL” value [6, 22] was 90%, the “% Inhibition VL” value [6, 23] was 95% and the “% Inhibition VL” value [6, 24] was 85%. The “% Inhibition VL” value [6, 25] was 95%, the “% Inhibition VL” value [6, 26] was 95% and the “% Inhibition VL” value [6, 27] was 95%. For the same compound, the “% Inhibition VL” value [6, 28] was 98%, the “% Inhibition VL” value [6, 29] was 95% and the “% Inhibition VL” value [6, 30] was 98%. For the same compound, the “% Inhibition VL” value [6, 31] was 95%, the “% Inhibition VL” value [6, 32] was 99% and the “% Inhibition VL” value [6, 33] was 98%. The “% Inhibition VL” value [6, 34] was 99%.
